Consider two molecules from patent US20130045991A1, “NEUROPROTECTIVE MODULATION OF NMDA RECEPTOR SUBTYPE ACTIVITIES” (THE UNIVERSITY OF BRITISH COLUMBIA, priority 2005, published 2013).

The target in assay [1] is T1, extrasynaptic NMDA receptors (Rattus norvegicus, UniProt Q00960).
T1 construct: both NR2A- and NR2B-containing receptor subtypes are expressed in these neurons; endogenous in cells; host or cells: primary cortical neurons from E18 Sprague-Dawley rat embryos, 11-14 DIV
Kind of assay: NMDA-induced currents mediated by extrasynaptic NMDA receptors. To be noted: NMDA 200 μM after MK-801/bicuculline block of synaptic receptors; Ro 25-6981 0.5 μM. In kind it is cell-based. The protocol: (§1) In contrast to the predominant expression of NR2A-containing receptors at synapses, NR2B-containing receptors are thought to be the predominant NMDA receptor expressed at extrasynaptic sites in mature neurons (Massy et al., 2004; Tovar et al., 2002). […] The selective blockade of synaptic NMDA receptors was achieved by co-application of bicuculline (50 μM) and MK-801 (10 μM) for 10 min. Bicuculline enhances synaptic release of glutamate and thereby selectively activates synaptic NMDA receptors (Hardingham et al., 2002). MK-801, as an irreversible blocker of open NMDA receptor channels (Tovar et al., 2002; Huettner et al., 1988), can only block the bicuculline-activated synaptic NMDA receptors, and cannot block extrasynaptic channels that are not activated during bicuculline application. […] Little recovery was observed one hour following wash-out of the drugs. The currents gated through extrasynaptic NMDA receptors were then induced by application of NMDA (200 μM) via a fast perfusion system after washing out bicuculline and MK-801. […] On average, about 26.6±2.3% (n=5) of total currents gated by extrasynaptic NMDA receptors were mediated by NR2A-containing receptors (FIG. 4Ad).
(§2) Recording of NMDA-induced currents mediated by extrasynaptic NMDA Receptors: Extrasynaptic NMDA receptors were isolated by a specific blockade of synaptic NMDA receptors with NMDA receptor open channel blocker MK-801 as described above. The coverslip with the treated cortical neurons was transferred to a recording chamber for whole-cell patch-clamp recording. Extrasynaptic NMDA receptors in voltage-clamped cortical neurons were activated by NMDA (200 μM) in Mg2+-free ECS using a fast perfusion system (Warner Instruments).

For assay [2], the system named is Akt (phospho-Ser473). Nature of the assay: Western blotting of Akt phosphorylation after NMDA treatment. Format: cell-based, rat. To be noted: NMDA-treated neurons, western blot. The protocol: Twelve hours after treatments, proteins were extracted from neurons using a lysis buffer composed of 150 mM NaCl, 50 mM Tris (pH 7.4), 0.1% SDS, 1% NP-40, 0.5% sodium deoxycholate, 1 mM EDTA, 1 mM Na3VO4, 10 μg/ml each of leupeptin and aprotinin, and 1 mM phenylmethylsulfonyl fluoride. To determine the state of Akt phosphorylation, the samples were separated on 10% SDS-PAGE gels, transferred to PVDF membrane and immunoblotted with anti-phosphoSer473-Akt antibody (Cell Signaling). The same membrane was stripped and reprobed with anti-Akt antibody (Cell Signaling). To determine the activity of caspase-3, the samples were separated on 15% SDS-PAGE gels and transferred to PVDF membranes, which were then sequentially probed with antibodies against cleaved caspase-3 (Asp175, Cell Signaling) and β-tubulin (Sigma).
For orientation: A western blot detects proteins with antibodies after separation by electrophoresis.

The target in assay [3] is T2, extrasynaptic NMDA receptors (Rattus norvegicus, UniProt Q00959).
T2 construct: both NR2A- and NR2B-containing receptor subtypes are expressed in these neurons; endogenous in cells; host or cells: primary cortical neurons from E18 Sprague-Dawley rat embryos, 11-14 DIV
T2 sequence (Q00959 23-1464, other chains not shown): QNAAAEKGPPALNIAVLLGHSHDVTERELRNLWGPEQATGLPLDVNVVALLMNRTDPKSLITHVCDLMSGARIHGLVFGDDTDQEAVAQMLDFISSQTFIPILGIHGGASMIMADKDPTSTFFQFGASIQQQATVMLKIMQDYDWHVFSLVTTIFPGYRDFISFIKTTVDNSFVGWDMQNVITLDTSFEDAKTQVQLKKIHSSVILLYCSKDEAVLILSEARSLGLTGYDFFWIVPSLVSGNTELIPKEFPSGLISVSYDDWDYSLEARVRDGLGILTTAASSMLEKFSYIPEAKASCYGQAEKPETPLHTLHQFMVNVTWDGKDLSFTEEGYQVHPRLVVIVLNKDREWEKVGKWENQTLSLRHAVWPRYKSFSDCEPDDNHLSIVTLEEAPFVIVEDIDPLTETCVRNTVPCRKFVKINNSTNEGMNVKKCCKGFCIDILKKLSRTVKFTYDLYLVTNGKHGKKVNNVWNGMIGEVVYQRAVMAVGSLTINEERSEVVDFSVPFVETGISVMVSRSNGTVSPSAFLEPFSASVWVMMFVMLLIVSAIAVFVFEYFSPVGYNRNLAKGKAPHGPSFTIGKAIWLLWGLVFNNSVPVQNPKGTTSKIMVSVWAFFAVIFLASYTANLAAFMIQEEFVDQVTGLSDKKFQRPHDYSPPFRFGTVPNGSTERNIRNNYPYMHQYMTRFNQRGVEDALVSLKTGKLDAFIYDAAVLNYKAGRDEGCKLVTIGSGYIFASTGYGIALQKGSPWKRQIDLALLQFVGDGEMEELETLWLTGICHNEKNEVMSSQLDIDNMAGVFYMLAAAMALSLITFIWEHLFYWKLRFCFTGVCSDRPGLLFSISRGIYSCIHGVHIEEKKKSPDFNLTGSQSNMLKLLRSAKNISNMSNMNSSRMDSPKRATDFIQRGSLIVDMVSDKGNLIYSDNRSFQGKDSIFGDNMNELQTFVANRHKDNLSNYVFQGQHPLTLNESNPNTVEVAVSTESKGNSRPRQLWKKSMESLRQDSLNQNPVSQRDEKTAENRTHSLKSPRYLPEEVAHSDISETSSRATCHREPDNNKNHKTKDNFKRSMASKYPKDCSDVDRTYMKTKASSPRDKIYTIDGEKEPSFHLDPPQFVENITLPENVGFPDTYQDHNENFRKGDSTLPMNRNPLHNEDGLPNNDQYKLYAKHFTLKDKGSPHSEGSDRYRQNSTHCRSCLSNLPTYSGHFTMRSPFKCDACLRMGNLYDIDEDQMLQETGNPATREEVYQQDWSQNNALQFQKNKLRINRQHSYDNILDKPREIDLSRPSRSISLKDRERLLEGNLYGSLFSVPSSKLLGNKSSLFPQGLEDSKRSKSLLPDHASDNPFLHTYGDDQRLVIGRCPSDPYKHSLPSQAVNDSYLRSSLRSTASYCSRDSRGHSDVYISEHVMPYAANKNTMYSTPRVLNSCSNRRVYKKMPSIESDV
Nature of the assay: NMDA-induced currents mediated by extrasynaptic NMDA receptors. To be noted: in presence of Ro 25-6981; NVP-AAM077 0.4 μM. In kind it is cell-based. The protocol: as §1, §2

Assay [4] has as its system extrasynaptic NMDA receptors. Described as above. In kind it is cell-based, rat. To be noted: NMDA 200 μM; n=5. The protocol: as §1, §2
Assay [5] has as its system cortical neurons. Kind of assay: Staurosporine (STS)-induced neuronal apoptosis. The conditions noted are these: co-application of NVP-AAM077 0.4 μM. In kind it is cell-based, rat. An excerpt: In alternative aspects of the invention, we have achieved specific activation of NR2A-containing receptors using two different strategies. First, we examined the effect of selective activation of extrasynaptic NR2A-containing receptor activation on neuronal appopotosis induced by staurosporine (STS), a potent apoptosis inducer (Budd et al., 2000). […] The NMDA-induced neuronal protection was indeed mediated by NR2A-containing receptors as it was prevented by co-application of NVP-AAM077 (p<0.001 compared with STS alone).
Dissociated cultures of cortical neurons were prepared from 18-day Sprague-Dawley rat embryos as described previously (Mielke et al., 2005). To obtain mixed cortical cultures enriched with neurons, uridine (10 μM) and 5-Fluor-2′-deoxyuridine (10 μM) were added to the culture medium at 3 DIV and maintained for 48 h, to inhibit non-neuronal cell proliferation, before the cultures were shifted back to the normal culture medium. Mature neurons (11-14 DIV) were used for experiments. To induce neuronal apoptosis, cortical cultures were stimulated with NMDA (50 μM) and glycine (10 μM) for 20 min, or STS (100 nM) for 1 h in Mg2+-free extracellular solution (ECS) containing (mM): 25 HEPES acid, 140 NaCl, 33 glucose, 5.4 KCl and 1.3 CaCl2, with pH 7.35 and osmolarity 320-330 mOsm. […]
To visualize injured neurons, Hoechst-33342 (10 μg/ml) was added to the culture medium 20 h after treatments and incubated for 45 min at 37 °C. Images were taken with a Leica DMIRE2 fluorescence microscope. Quantitative assessment of neuronal apoptosis was performed 20 h following treatments using a Cell Death Detection ELISAPLUS Kit (Roche Applied Science). Absorbance readings were determined using a spectrophotometric microplate reader. […] Data are expressed as the difference in apoptosis relative to control and are expressed as a percentage.

T1 sequence (Q00960 27-1482, other chains not shown): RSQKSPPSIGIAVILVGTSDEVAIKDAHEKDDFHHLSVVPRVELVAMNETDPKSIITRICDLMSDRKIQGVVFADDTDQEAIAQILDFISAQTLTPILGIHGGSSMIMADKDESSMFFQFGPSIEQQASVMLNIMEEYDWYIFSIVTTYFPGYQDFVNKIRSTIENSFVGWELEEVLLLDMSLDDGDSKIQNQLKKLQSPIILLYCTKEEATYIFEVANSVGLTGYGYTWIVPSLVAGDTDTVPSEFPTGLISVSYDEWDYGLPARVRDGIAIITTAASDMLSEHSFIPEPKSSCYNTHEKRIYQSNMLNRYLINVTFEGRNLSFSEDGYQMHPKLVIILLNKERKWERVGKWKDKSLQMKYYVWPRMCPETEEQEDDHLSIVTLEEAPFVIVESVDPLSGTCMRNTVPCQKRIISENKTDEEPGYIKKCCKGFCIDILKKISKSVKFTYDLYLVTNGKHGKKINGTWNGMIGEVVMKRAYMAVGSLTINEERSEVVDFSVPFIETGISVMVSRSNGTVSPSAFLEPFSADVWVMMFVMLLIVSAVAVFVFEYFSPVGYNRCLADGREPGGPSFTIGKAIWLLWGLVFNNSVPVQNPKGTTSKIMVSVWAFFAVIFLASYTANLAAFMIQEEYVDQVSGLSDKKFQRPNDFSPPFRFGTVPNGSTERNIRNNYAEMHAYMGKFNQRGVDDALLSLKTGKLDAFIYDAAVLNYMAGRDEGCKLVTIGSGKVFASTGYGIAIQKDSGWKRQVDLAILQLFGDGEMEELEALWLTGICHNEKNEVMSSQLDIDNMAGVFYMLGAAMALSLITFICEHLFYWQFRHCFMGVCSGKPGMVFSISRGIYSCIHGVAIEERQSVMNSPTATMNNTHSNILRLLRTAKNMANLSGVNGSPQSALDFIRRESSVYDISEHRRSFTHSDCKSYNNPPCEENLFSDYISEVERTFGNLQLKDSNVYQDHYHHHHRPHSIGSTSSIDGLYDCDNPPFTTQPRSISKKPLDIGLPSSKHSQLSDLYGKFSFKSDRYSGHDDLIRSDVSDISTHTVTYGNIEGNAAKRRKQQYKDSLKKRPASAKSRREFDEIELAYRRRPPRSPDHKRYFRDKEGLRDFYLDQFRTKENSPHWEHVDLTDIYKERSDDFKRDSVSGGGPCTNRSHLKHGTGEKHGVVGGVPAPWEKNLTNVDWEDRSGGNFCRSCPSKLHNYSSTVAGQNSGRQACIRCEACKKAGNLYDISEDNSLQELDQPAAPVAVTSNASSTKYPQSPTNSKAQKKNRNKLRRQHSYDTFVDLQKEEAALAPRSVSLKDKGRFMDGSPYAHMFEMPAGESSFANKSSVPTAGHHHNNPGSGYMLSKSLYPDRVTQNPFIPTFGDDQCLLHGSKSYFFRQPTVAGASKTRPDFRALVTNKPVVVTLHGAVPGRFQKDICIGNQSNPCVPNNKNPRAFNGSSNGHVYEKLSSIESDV

For the molecule `C[C@@H](CN1CCC(Cc2ccccc2)CC1)[C@@H](O)c1ccc(O)cc1` (relative stereo) [Ro 25-6981, [R-(R*,S*)]-α-(4-Hydroxyphenyl)-β-methyl-4-(phenylmethyl)-1-piperidinepropanol], the “effect on extrasynaptic NMDA receptor-mediated currents” value in assay [1] is reported as “largely reduced”.

Consider `C[C@H](NC(c1cccc2[nH]c(=O)c(=O)[nH]c12)P(=O)(O)O)c1ccc(Br)cc1` (some centres unmarked) [NVP-AAM077], for which, in assay [2], the “effect on NMDA-induced reduction in Akt kinase activity (S473 dephosphorylation)” value is reported as “slightly increased the NMDA-induced reduction in Akt activity”. The “effect on residual, NR2B antagonist-resistant extrasynaptic current” value in assay [3] is on record as “virtually completely blocked”. Moreover, in assay [4], the “share of total extrasynaptic NMDA receptor currents mediated by NR2A-containing receptors (Ro 25-6981-resistant, NVP-AAM077-blocked)” value was “about 26.6±2.3%”. In addition, the “effect on NMDA-induced protection against STS” value in assay [5] is on record as “prevented”.
